# Source: patent publication US6413909B1, “Herbicide composition for control of rye grass and vetch in preplant burndown” (priority 2001, dated 2002)
# Key:
# humans and other mammals = details: result in words; cited from earlier work
# vetch = details: herbicide alone; cited from earlier work
# [1] = test system: broadleaf weeds and grasses typically found in preplant corn fields; assay: Field test of preplant burndown effectiveness (Example 1); assay type: in vivo; details: average of ratings 6 and 8 weeks after treatment
# Protocol: The composition of the present invention was tested for percent burndown effectiveness, compared to pretreatment, in fields containing broadleaf weeds and grasses typically found in preplant corn fields, including Texas panicum, fall panicum, signalgrass, goosegrass, barnyardgrass, yellow & green foxtail, pigweed, wild mustard, ryegrass, vetch, volunteer wheat, Florida pusley, smartweed, and cutleaf evening primrose.
# The composition of the present invention consisted of about 57% ametryn, 25% atrazine, and 18% paraquat, by weight, and was applied at a rate of about 2 lbs. per acre. On separate fields, for comparison, ametryn alone, paraquat alone, atrazine alone, and ametryn plus gramoxone were applied. The composition of the present invention was formulated by suspending 2 lbs. of the composition of the present invention per 20 gallons of water. Herbicides were rated for burndown effectiveness 6 and 8 weeks after treatment. The two resulting values were averaged.
SMILES,toxicity to humans (humans and other mammals),effective against vetch (vetch) [%],"Percent Burndown ([1]; ametryn 1.14 lb active ingredient/acre, compared to pretreatment) [%]",Percent Burndown ([1]; paraquat 0.35 lb active ingredient/acre) [%],Percent Burndown ([1]; paraquat 0.70 lb active ingredient/acre) [%]
"CCNc1nc(NC(C)C)nc(SC)n1 [ametryn, 2-(ethylamino)-4-isopropylamino-6-methylthio-s-triazine]",minimal human toxicity,100,30,–,–
"C[n+]1ccc(-c2cc[n+](C)cc2)cc1 [paraquat, 1,1-dimethyl-4,4-bipyridinium]",high toxicity to humans and other mammals,–,–,30,50
